Measured values as given in patent US12178802B1, “3-(1-(3-(dimethylamino)propyl)-4,5-diphenyl-1H-imidazol-2-yl)pyridin-2-ol as an antitumor and antimicrobial compound” (KING FAISAL UNIVERSITY, priority 2023, dated 2024).

Legend:
Experiment in all cases: cup-plate agar diffusion antimicrobial activity
Type in all cases: cell-based
Pseudomonas aeruginosa = tested on: Pseudomonas aeruginosa
Description: (§1) Antibacterial activity of the synthesized compound has been tested using Gram-negative strains such as Escherichia coli, Salmonella enteric, Pseudomonas aeruginosa, and Pseudomonas putida; and Gram-positive strains such as Staphylococcus aureus, Staphylococcus epidermidis, Bacillus subtilis, and Micrococcus luteus. Additionally, antifungal activity has been tested using different Candida strains such as Candida albicans, Candida glabrata, and Candida krusei.
(§2) The present compound 3-(1-(3-(Dimethylamino)propyl)-4,5-diphenyl-1H-imidazol-2-yl)pyridin-2-ol was dissolved in DMF followed by dilution in buffer to obtain final concentrations of 60,000, 30,000 and 15,000 ppm. The final concentration of DMF was less than 2% in the final buffer solutions.
(§3) Negative control was performed using DMF diluted to similar final concentrations of compound solutions. Ampicillin and Geneticin were used as positive controls with similar dilutions and final concentrations.
(§4) Using the cup-plate agar diffusion method, a definite volume of the microbial suspension (inoculums) was mixed with sterilized agar media. Plates were prepared and left to solidify and then wells were prepared using a sterile cork borer. The wells were filled with an equal volume of a solution of synthesized compounds and standard drugs. The plates were incubated for a definite time under specified conditions. The zones of inhibition were measured in cm as a parameter of antimicrobial activity.
(§5) The tested antimicrobial activity of the 3-(1-(3-(Dimethylamino)propyl)-4,5-diphenyl-1H-imidazol-2-yl)pyridin-2-ol, as compared to ampicillin, can be seen in Table 1, below, with zones of inhibition measured in cm.

Pseudomonas putida = tested on: Pseudomonas putida
Description: as §1, §2, §3, §4, §5

[1] = tested on: Staphylococcus epidermidis
Description: as §1, §2, §3, §4, §5

Bacillus subtilis = tested on: Bacillus subtilis
Description: as §1, §2, §3, §4, §5

Salmonella enterica = tested on: Salmonella enterica
Description: as §1, §2, §3, §4, §5

Escherichia coli = tested on: Escherichia coli
Description: as §1, §2, §3, §4, §5

Staphylococcus aureus = tested on: Staphylococcus aureus
Description: as §1, §2, §3, §4, §5

Micrococcus luteus = tested on: Micrococcus luteus
Description: as §1, §2, §3, §4, §5

CN(C)CCCn1c(-c2cccnc2O)nc(-c2ccccc2)c1-c1ccccc1 [3-(1-(3-(Dimethylamino)propyl)-4,5-diphenyl-1H-imidazol-2-yl)pyridin-2-ol]
zones of inhibition (Pseudomonas aeruginosa; concentration 15): 0.6 cm
zones of inhibition (Pseudomonas aeruginosa; concentration 30): 0.7 cm
zones of inhibition (Pseudomonas aeruginosa; concentration 60): 1.1 cm
zones of inhibition (Pseudomonas putida; concentration 15): 0.1 cm
zones of inhibition (Pseudomonas putida; concentration 30): 0.5 cm
zones of inhibition (Pseudomonas putida; concentration 60): 1.1 cm
zones of inhibition ([1]; concentration 15): 2.1 cm
zones of inhibition ([1]; concentration 30): 3.0 cm
zones of inhibition ([1]; concentration 60): 3.3 cm
zones of inhibition (Bacillus subtilis; concentration 15): 1.1 cm
zones of inhibition (Bacillus subtilis; concentration 30): 1.5 cm
zones of inhibition (Bacillus subtilis; concentration 60): 2.7 cm
zones of inhibition (Salmonella enterica; concentration 15): 0.7 cm
zones of inhibition (Salmonella enterica; concentration 30): 1.0 cm
zones of inhibition (Salmonella enterica; concentration 60): 1.7 cm
zones of inhibition (Escherichia coli; concentration 15): 0.6 cm
zones of inhibition (Escherichia coli; concentration 30): 0.9 cm
zones of inhibition (Escherichia coli; concentration 60): 1.00 cm
zones of inhibition (Staphylococcus aureus; concentration 15): 2.0 cm
zones of inhibition (Staphylococcus aureus; concentration 30): 2.9 cm
zones of inhibition (Staphylococcus aureus; concentration 60): 3.9 cm
zones of inhibition (Micrococcus luteus; concentration 15): 1.2 cm
zones of inhibition (Micrococcus luteus; concentration 30): 2.4 cm
zones of inhibition (Micrococcus luteus; concentration 60): 3.2 cm

CC1(C)S[C@@H]2[C@H](NC(=O)[C@H](N)c3ccccc3)C(=O)N2[C@H]1C(=O)O [Ampicillin]
zones of inhibition (Pseudomonas aeruginosa; concentration 15): 0.4 cm
zones of inhibition (Pseudomonas aeruginosa; concentration 30): 0.8 cm
zones of inhibition (Pseudomonas aeruginosa; concentration 60): 1.2 cm
zones of inhibition (Pseudomonas putida; concentration 15): 0.3 cm
zones of inhibition (Pseudomonas putida; concentration 30): 0.6 cm
zones of inhibition (Pseudomonas putida; concentration 60): 1.0 cm
zones of inhibition ([1]; concentration 15): 2.5 cm
zones of inhibition ([1]; concentration 30): 3.0 cm
zones of inhibition ([1]; concentration 60): 3.5 cm
zones of inhibition (Bacillus subtilis; concentration 15): 1.2 cm
zones of inhibition (Bacillus subtilis; concentration 30): 1.9 cm
zones of inhibition (Bacillus subtilis; concentration 60): 2.3 cm
zones of inhibition (Salmonella enterica; concentration 15): 0.9 cm
zones of inhibition (Salmonella enterica; concentration 30): 1.3 cm
zones of inhibition (Salmonella enterica; concentration 60): 1.6 cm
zones of inhibition (Escherichia coli; concentration 15): 0.4 cm
zones of inhibition (Escherichia coli; concentration 30): 0.8 cm
zones of inhibition (Escherichia coli; concentration 60): 1.2 cm
zones of inhibition (Staphylococcus aureus; concentration 15): 2.9 cm
zones of inhibition (Staphylococcus aureus; concentration 30): 3.5 cm
zones of inhibition (Staphylococcus aureus; concentration 60): 4.0 cm
zones of inhibition (Micrococcus luteus; concentration 15): 1.8 cm
zones of inhibition (Micrococcus luteus; concentration 30): 2.8 cm
zones of inhibition (Micrococcus luteus; concentration 60): 3.6 cm
